In ChEMBL document CHEMBL1153200, “Discovery of 3,6-dihydro-2H-pyran as a morpholine replacement in 6-aryl-1H-pyrazolo[3,4-d]pyrimidines and 2-arylthieno[3,2-d]pyrimidines: ATP-competitive inhibitors of the mammalian target of rapamycin (mTOR)” (Bioorg Med Chem Lett, 2010):

Key:
[1] = target: Serine/threonine-protein kinase mTOR (Homo sapiens, UniProt P42345); test: Inhibition of mTOR in HEK293 cells by DELFIA assay; format: cell-based
[2] = target: Phosphatidylinositol 4,5-bisphosphate 3-kinase catalytic subunit alpha isoform (Homo sapiens, UniProt P42336); test: Inhibition of PI3Kalpha by fluorescence polarization assay
Chain of Phosphatidylinositol 4,5-bisphosphate 3-kinase catalytic subunit alpha isoform (P42336 whole entry, canonical isoform): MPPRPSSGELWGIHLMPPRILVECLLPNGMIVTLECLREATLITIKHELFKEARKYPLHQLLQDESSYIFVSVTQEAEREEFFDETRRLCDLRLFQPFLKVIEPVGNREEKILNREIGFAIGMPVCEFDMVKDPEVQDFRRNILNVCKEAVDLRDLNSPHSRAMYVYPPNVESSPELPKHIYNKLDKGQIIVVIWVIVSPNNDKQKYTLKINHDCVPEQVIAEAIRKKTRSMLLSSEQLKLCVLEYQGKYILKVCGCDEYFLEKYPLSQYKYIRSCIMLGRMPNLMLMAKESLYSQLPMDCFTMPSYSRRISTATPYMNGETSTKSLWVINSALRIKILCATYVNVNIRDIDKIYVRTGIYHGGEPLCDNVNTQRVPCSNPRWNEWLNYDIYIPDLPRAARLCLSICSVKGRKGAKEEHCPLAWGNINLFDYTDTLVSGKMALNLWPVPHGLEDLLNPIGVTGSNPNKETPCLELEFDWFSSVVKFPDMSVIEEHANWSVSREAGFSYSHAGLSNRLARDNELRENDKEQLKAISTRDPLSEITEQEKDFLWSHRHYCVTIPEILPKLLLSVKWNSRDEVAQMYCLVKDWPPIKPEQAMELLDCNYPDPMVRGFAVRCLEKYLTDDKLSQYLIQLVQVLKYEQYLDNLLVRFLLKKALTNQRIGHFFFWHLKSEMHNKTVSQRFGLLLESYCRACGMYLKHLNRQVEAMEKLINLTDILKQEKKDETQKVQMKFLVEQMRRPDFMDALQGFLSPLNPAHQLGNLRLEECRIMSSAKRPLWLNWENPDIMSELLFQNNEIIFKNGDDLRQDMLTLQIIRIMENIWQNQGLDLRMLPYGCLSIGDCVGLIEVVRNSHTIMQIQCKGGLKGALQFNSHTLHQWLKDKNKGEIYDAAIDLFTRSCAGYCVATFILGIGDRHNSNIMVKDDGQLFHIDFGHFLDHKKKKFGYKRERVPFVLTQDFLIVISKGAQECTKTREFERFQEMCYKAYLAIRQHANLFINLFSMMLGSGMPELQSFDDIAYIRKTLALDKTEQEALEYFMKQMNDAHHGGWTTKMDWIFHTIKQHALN

[3] = Selectivity ratio, IC50 for PI3Kalpha to IC50 for human mTOR
LNCaP = test: Cytotoxicity against human LNCAP cells after 1 to 2 hrs by MTS assay; format: functional, cell-based
[4] = Half life in nude mouse microsomes; format: ADME, Microsome

| IC50 [1] [nM] | IC50 [2] [nM] | Ratio IC50 [3] | half-life [4] [min] | IC50 ([1]; hek293) [nM] | SMILES | IC50 (LNCaP) [nM] |
| --- | --- | --- | --- | --- | --- | --- |
| 7.2 | 28 | 4 | 21 |  | O=C(Nc1ccccc1)Nc1ccc(-c2nc(C3=CCOCC3)c3sccc3n2)cc1 | 800 |
| 1.8 | 27 | 15 | > 30 |  | O=C(Nc1ccncc1)Nc1ccc(-c2nc(C3=CCOCC3)c3sccc3n2)cc1 | 200 |
| 3.3 | 1050 | 319 | 3 |  | CCNC(=O)Nc1ccc(-c2nc(C3=CCOCC3)c3sccc3n2)cc1 | 470 |
| 2 | 200 | 100 | 13 |  | CNC(=O)Nc1ccc(-c2nc(C3=CCOCC3)c3cnn(CC(F)(F)F)c3n2)cc1 | 260 |
| 18 | 59 | 3.3 |  |  | Oc1cccc(-c2nc(C3=CCOCC3)c3cnn(-c4ccccc4)c3n2)c1 |  |
| 1 |  | 66 | 25 |  | O=C(Nc1ccc(-c2nc(C3=CCOCC3)c3cnn(CC(F)(F)F)c3n2)cc1)Nc1cccnc1 | 380 |
| 1 |  | 2300 | > 30 |  | O=C(NCCF)Nc1ccc(-c2nc(C3=CCOCC3)c3cnn(CC(F)(F)F)c3n2)cc1 | 72 |

The next lines start with the compound.

| SMILES | IC50 [1] [nM] | IC50 [2] [nM] | Ratio IC50 [3] | half-life [4] [min] | IC50 ([1]; hek293) [nM] | IC50 (LNCaP) [nM] |
| --- | --- | --- | --- | --- | --- | --- |
| O=C(Nc1ccc(-c2nc(C3=CCOCC3)c3sccc3n2)cc1)Nc1cccnc1 | 1.1 | 35 | 32 | > 30 |  | 210 |
| CNC(=O)Nc1ccc(-c2nc(N3CCOCC3)c3cnn(CC(F)(F)F)c3n2)cc1 |  |  | 194 | 26 | 1 | 230 |
| O=C(Nc1ccc(-c2nc(N3CCOCC3)c3cnn(CC(F)(F)F)c3n2)cc1)Nc1cccnc1 | 0.2 |  | 50 | > 30 |  | < 27 |
| Oc1cccc(-c2nc(C3CCOCC3)c3cnn(-c4ccccc4)c3n2)c1 | 500 | 1010 | 2 |  |  |  |
| O=C(NCCF)Nc1ccc(-c2nc(C3=CCOCC3)c3sccc3n2)cc1 | 2.5 | 1370 | 560 | 6 |  | 1300 |
| O=C(NCCF)Nc1ccc(-c2nc(N3CCOCC3)c3cnn(CC(F)(F)F)c3n2)cc1 |  |  | 525 | 22 | 0.6 | 60 |
